In patent US20200289474A1, “METHODS OF TREATING PAIN WITH A THIAZOLINE ANTI-HYPERALGESIC” (priority 2019, published 2020):

Columns and labels:
[1] = dog pharmacokinetics, single PO (10 mg/kg) and IV (3 mg/kg) dose; assay type: in vivo
Experimental: The objective of the first single dose non-GLP study in dogs was to determine the pharmacokinetics and bioavailability of Compound 1 after a single oral (gavage) or single intravenous (IV) dose in dogs. The test article formulation was administered to three male dogs orally via gavage at a dose level of 10 mg/kg (dosing volume of 2 mL/kg body weight). Following a wash-out period of a minimum of three days, the same three dogs were administered the test article formulation via an IV bolus push over approximately 1-2 minutes at a dose level of 3 mg/kg (dosing volume of 0.5 mL/kg). The vehicle for oral gavage dosing was 0.5% HPMC; the vehicle for IV injection was sterile phosphate buffered saline (PBS; pH 7.4). […] Animals were returned to quarantine after the last blood collection.

[2] = tested on: lactoperoxidase; assay: lactoperoxidase oxidation (mediated by peroxide); assay type: biochemical; settings: physiological conditions (neutral pH)
[3] = rat brain distribution study; assay type: in vivo
Source text: A rat brain distribution study performed in order to determine standard pharmacokinetic parameters and to assess the brain penetration properties of Compound 1 administered orally and intravenously. […] The compound distributed readily in tissues with a steady-state volume of distribution of 1.7 L/kg.

[4] = target: T1, BCRP (Homo sapiens, UniProt Q9UNQ0); assay: transporter inhibition, MDCKII-BCRP cells, prazosin transport; assay type: in vitro ADME
T1 construct: expressed in transfected cells
T1 sequence (Q9UNQ0 1-655): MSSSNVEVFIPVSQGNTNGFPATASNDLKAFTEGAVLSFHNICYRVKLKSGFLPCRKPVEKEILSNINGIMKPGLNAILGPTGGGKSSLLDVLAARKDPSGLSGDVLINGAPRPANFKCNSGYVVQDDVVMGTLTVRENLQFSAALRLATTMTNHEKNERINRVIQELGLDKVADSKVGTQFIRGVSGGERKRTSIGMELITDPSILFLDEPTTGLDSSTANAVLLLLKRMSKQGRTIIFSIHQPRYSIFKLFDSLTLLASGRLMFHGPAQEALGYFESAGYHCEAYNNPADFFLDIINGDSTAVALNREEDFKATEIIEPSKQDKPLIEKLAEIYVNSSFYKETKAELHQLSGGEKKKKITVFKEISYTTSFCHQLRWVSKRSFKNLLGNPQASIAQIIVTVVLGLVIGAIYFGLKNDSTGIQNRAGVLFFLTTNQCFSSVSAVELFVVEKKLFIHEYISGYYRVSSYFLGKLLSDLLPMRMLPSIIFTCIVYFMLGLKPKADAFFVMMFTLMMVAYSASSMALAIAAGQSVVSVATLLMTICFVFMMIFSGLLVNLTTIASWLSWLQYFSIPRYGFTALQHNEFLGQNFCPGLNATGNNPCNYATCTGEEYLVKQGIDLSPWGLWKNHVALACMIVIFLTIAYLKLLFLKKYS

[5] = tested on: MDCKII control cells; assay: cytotoxicity by lactate dehydrogenase (LDH) release; assay type: cell-based
[6] = beagle dog single dose study IV 10 mg/kg, oral 10 and 100 mg/kg; assay type: in vivo; settings: fasted beagle dogs
Experimental: In another study Compound 1 was administered IV as a single dose to fasted beagle dogs at 10 mg/kg and orally at 10 and 100 mg/kg. Compound 1 was rapidly and well absorbed orally, within 1 hr, reaching peak plasma concentrations of 15 and 108 μg/mL at 10 and 100 mg/kg doses, respectively. The compound distributed readily in tissues with a moderate steady-state volume of distribution (0.3 L/kg).

[7] = stability in plasma; assay type: in vitro ADME; settings: rat plasma
[8] = tested on: HEK293 cells; assay: cytotoxicity by lactate dehydrogenase (LDH) release; assay type: cell-based
[9] = stability in plasma from a variety of species; assay type: in vitro ADME
[10] = tested on: normal sensation; assay: normal sensation in uninjured animals
[11] = tested on: PN-mediated cytotoxicity; assay: cell-based assays of PN-mediated cytotoxicity
[12] = target: T2, OAT1 (Homo sapiens, UniProt Q4U2R8); assay: transporter inhibition, HEK293 cells, probe accumulation; assay type: in vitro ADME
T2 construct: expressed in transfected cells; host or cells: HEK293 cells
T2 sequence (Q4U2R8 1-563): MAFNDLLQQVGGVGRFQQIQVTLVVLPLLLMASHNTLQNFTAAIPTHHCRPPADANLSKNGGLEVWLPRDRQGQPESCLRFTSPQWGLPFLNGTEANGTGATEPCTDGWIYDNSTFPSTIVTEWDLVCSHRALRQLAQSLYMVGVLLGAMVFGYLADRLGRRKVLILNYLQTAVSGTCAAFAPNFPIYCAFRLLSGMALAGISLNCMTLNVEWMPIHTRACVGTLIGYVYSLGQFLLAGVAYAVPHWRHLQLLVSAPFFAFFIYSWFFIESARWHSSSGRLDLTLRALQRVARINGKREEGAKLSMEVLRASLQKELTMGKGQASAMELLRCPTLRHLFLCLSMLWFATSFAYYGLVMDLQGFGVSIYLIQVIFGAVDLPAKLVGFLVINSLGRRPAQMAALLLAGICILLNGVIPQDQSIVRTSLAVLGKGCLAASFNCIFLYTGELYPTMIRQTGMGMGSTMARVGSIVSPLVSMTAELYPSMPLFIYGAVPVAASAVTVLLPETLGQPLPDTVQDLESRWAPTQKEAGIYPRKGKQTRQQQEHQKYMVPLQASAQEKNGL

[13] = stability in plasma; assay type: in vitro ADME; settings: human plasma
[14] = male dogs, 10 mg/kg oral gavage

**Q.** Which “epimerization in vivo (chiral column)” value ([1]; dog plasma) does the source give for `CC1(C)SC(Nc2ccccc2O)=N[C@@H]1C(=O)O.Cl` [Compound 1, (R)-2-(2-hydroxyphenylamino)-5,5-dimethyl-4,5-dihydrothiazole-4-carboxylic acid mono-hydrochloride] here?
**A.** The value was “did not provide any evidence of epimerization”.

**Q.** What about the half-life ([1]; dog, plasma, male dogs, 10 mg/kg oral gavage, read-out: median t1/2 (converted)) of the same compound?
**A.** The half-life was 84 min.

**Q.** What about the tmax ([1]; male dogs, 3 mg/kg IV bolus) of the same compound?
**A.** Its tmax is “about 5 minutes”.

**Q.** What about the “average oral Cmax” value [1, 14] of the same compound?
**A.** The value was 12 µg/mL.

**Q.** What about the tmax [1, 14] of the same compound?
**A.** Its tmax is “about 1 hour”.

**Q.** What about the mean oral bioavailability ([1]; male dogs, 10 mg/kg oral vs 3 mg/kg IV) of the same compound?
**A.** The mean oral bioavailability was 72%.

**Q.** What about the “removal of peroxynitrite in lactoperoxidase oxidation” value [2] of the same compound?
**A.** The value was “catalytically remove peroxynitrite”.

**Q.** And the peak plasma concentration ([3]; rat, in vivo, po, 30 mg/kg)?
**A.** Its peak plasma concentration is 9 µg/mL.

**Q.** What about the “time to peak plasma concentration” value ([3]; rat, in vivo, po, 30 mg/kg) of the same compound?
**A.** Its value is at most 1 h.

**Q.** What about the “steady-state volume of distribution” value ([3]; rats) of the same compound?
**A.** The value was 1.7 L/kg.

**Q.** And the oral bioavailability ([3]; rats, 30 mg/kg oral dose)?
**A.** Its oral bioavailability is 111%.

**Q.** And the terminal half-life ([3]; rats, 30 mg/kg oral dose)?
**A.** Its terminal half-life is 1.6 h.

**Q.** And the brain-to-plasma concentration ratio ([3]; rats, 1 h after IV administration)?
**A.** Its brain-to-plasma concentration ratio is 0.02.

**Q.** And the “inhibition” value [4]?
**A.** Its value is “modestly inhibits”.

**Q.** What about the “percent cytotoxicity (LDH release)” value ([5]; 100 μM) of the same compound?
**A.** The value was 31.3%.

**Q.** What about the “percent cytotoxicity (LDH release)” value ([5]; 600 μM) of the same compound?
**A.** The value was 33.6%.

**Q.** And the mean terminal half-life [6]?
**A.** Its mean terminal half-life is 3.9 h.

**Q.** And the “steady-state volume of distribution” value [6]?
**A.** Its value is 0.3 L/kg.

**Q.** What about the oral bioavailability ([6]; both 10 and 100 mg/kg) of the same compound?
**A.** Its oral bioavailability is 75%.

**Q.** And the peak plasma concentration ([6]; oral 10 mg/kg)?
**A.** Its peak plasma concentration is 15 µg/mL.

**Q.** And the peak plasma concentration ([6]; oral 100 mg/kg)?
**A.** The peak plasma concentration was 108 µg/mL.

**Q.** And the “time to peak plasma concentration” value ([6]; oral 10 and 100 mg/kg)?
**A.** Its value is at most 1 h.

**Q.** And the stability in plasma [7]?
**A.** The stability in plasma was “stable”.

**Q.** What about the “cytotoxicity (LDH release)” value [8] of the same compound?
**A.** The value was “less than 25%”.

**Q.** What about the stability in plasma [9] of the same compound?
**A.** The stability in plasma was “stable”.

**Q.** And the “effect on normal sensation” value [10]?
**A.** The value was “does not alter normal sensation”.

**Q.** And the “effect in PN-mediated cytotoxicity” value [11]?
**A.** Its value is “protective”.

**Q.** And the “inhibition” value [12]?
**A.** The value was “does not inhibit”.

**Q.** What about the stability in plasma [13] of the same compound?
**A.** Its stability in plasma is “stable”.
